Publication PMC8825254, “Rational design of Striga hermonthica-specific seed germination inhibitors” (Plant Physiology, 2021)

Columns and labels:
[1] = system: Rice d17 seedlings; experiment: Rice micro tillering assay, SL-deficient mutant d17 with GR24; assay type: in vivo, rice (Oryza sativa); details: compound with 1.0 µM GR24; result in words
Method: (§1) Rice seeds of WT (cv Nipponbare) or SL-deficient mutant (d17), were surface sterilized with 2.5% NaClO and 0.05% of Tween-20 for 10 min, and rinsed 6 times with sterilized MilliQ water. About 30 seeds were placed on sterilized Magenta GA-7 plant culture box containing 0.5% MS medium with 0.4% agar and incubated at 30°C in dark. After 2 d, boxes were moved to a growth chamber and allowed to grow for another 5 d under fluorescent white light (130–180 μM m^−2 s^−1). Equally grown seedlings were transplanted in 50-mL black tubes filled with Hoagland nutrient solution (1 seedling/tube). Seedlings were treated with 10, 50, and 100 µM of each compound (KK023-N1, Triton X-100, and KK094). The compounds were applied twice a week for 2 weeks to test their effects on the growth of WT plants. SL-deficient seedlings (d17) were treated as WT but with the addition of 1 µM GR24. Number of tillers per plant, plant height, and dry biomass were measured at final harvest.

[2] = biological target: ShHTL5 (Striga hermonthica, UniProt A0A0M5I297); experiment: YLG hydrolysis competition assay with ShHTL5; assay type: biochemical
ShHTL5, sequence (A0A0M5I297 entry or part of it): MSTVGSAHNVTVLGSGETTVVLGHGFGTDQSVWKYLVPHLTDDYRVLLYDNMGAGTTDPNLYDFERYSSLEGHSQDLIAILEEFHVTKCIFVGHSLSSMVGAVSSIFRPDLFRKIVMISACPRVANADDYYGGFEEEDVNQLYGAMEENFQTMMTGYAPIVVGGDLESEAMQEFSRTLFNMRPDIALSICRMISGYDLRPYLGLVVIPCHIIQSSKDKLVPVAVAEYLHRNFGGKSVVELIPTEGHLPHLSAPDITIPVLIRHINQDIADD

[3] = biological target: T1, ShHTL7 (Striga hermonthica, UniProt A0A0M3PNA2); experiment: YLG hydrolysis competition assay with ShHTL7; assay type: biochemical
T1 sequence (A0A0M3PNA2 1-271): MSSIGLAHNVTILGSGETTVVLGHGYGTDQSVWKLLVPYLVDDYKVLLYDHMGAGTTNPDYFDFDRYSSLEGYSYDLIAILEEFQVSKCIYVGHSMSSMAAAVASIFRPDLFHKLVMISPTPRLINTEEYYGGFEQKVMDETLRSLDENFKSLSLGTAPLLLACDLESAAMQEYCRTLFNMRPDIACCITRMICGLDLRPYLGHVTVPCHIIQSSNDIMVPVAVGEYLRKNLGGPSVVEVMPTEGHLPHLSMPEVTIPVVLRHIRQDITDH
Method: About 0.33 µM of ShHTL7 protein was used to conduct in vitro hydrolysis of YLG (1 µM) as a substrate in a total volume of 100 µL of phosphate-buffered saline (1× PBS) containing 0.1% DMSO in 96-well black plate (Greiner Kremsmünster, Austria; [Tsuchiya et al., 2015]). The hydrolysis of YLG over time and changes in the fluorescence intensity was measured by SpectraMax i3 (Molecular Devices, San Jose, CA, USA) using an excitation wavelength of 480 nm and detection wavelength of 520 nm and recorded at 10 min intervals for 2 h. YLG in 1× PBS without protein was used as a control. […] Measurement of the fluorescence was conducted in SpectraMax i3 (Molecular Devices) using the above-mentioned method. The relative fluorescence unit was calculated by subtracting the auto-fluorescence of YLG in the buffer from the fluorescence values of YLG in the presence of a protein. The inhibitory curve and IC50 were determined using https://www.aatbio.com/tools/ic50-calculator website.

[4] = system: Rice WT (cv Nipponbare) seedlings; experiment: Rice micro tillering assay, WT, hydroponics; assay type: in vivo, rice (Oryza sativa); details: 10, 50 and 100 µM, 2 weeks, result in words
Method: as §1

Structure (SMILES): COc1ccc(CCCc2cccc3c2CCN3C(=O)n2ccnn2)cc1 [KK023-N1]
- Effect on GR24 action on tillering of d17 rice [1]: did not block the GR24 effect on rice tillers
- inhibition at 50 µM ([2]; 1 h, 50 µM compound, read-out: Reduction of ShHTL5 hydrolysis activity): 20%
- IC50 ([2]; read-out: IC50, ShHTL5-mediated YLG hydrolysis): > 50000 nM
- Effect on YLG hydrolysis by ShHTL5 ([2]; result in words): did not influence the YLG hydrolysis
- IC50 [3]: 1780 nM
- Effect on dry biomass of WT rice [4]: except at 100 µM concentration that led to a reduction in biomass
- Effect on plant height of WT rice [4]: did not observe any significant negative impact
- Effect on tillering of WT rice [4]: did not observe any significant negative impact
